Target: ACSS2 (Homo sapiens, UniProt Q9NR19)
Test: biochemical
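Also: Pyrophosphatase-coupled ACSS2 enzyme assay, 10 nM protein incubated 90 min at 37 °C with ATP, CoA and acetate, released phosphate read by Biomol Green absorbance at 620 nm.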

Sequence of ACSS2 (Q9NR19 whole entry): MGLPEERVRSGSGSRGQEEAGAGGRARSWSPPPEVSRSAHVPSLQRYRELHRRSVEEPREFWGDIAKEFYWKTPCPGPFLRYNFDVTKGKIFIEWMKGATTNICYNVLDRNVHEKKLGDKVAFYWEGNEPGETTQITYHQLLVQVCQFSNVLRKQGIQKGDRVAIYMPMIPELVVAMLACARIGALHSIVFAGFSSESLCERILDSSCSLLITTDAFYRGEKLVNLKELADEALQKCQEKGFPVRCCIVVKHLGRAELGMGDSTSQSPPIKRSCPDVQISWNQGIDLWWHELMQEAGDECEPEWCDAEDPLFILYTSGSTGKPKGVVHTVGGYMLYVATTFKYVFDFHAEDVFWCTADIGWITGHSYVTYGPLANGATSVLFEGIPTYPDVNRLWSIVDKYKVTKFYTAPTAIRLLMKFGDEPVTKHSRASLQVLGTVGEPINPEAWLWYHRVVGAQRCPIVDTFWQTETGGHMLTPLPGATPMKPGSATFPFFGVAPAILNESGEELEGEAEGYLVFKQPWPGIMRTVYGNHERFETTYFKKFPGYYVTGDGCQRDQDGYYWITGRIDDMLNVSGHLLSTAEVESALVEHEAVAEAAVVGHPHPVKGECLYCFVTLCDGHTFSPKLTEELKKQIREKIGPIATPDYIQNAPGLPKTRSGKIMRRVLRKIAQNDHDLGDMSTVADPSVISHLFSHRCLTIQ
Method: The assay is based on a coupling reaction with Pyrophosphatase: ACSS2 is converting ATP+CoA+Acetate=>AMP+pyrophosphate+Acetyl-CoA (Ac-CoA). Pyrophosphatase converts pyrophosphate, a product of the ACSS2 reaction, to phosphate which can be detected by measuring the absorbance at 620 nm after incubation with the Biomol green reagent (Enzo life Science, BML-AK111).
At the end of the reaction, Biomol Green was added for 30 minutes at RT and the activity was measured by reading the absorbance at 620 nm.

SMILES	IC50 [nM]
CCC(F)(F)c1cccc(NC(=O)C2C(=O)N(c3ccc4nccnc4c3)N=C2C)c1 (stereo not drawn) [compound 488, N-(3-(1,1-difluoropropyl)phenyl)-3-methyl-5-oxo-1-(quinoxalin-6-yl)-4,5-dihydro-1H-pyrazole-4-carboxamide]	0.01 to 6
CCC(F)(F)c1cccc(NC(=O)C2C(=O)N(c3cnc(Cl)cn3)N=C2C)c1 (stereo not drawn) [compound 489, 1-(5-chloropyrazin-2-yl)-N-(3-(1,1-difluoropropyl)phenyl)-3-methyl-5-oxo-4,5-dihydro-1H-pyrazole-4-carboxamide]	0.01 to 6
CCC(F)(F)c1cccc(NC(=O)C2C(=O)N(c3ccc(Cl)nn3)N=C2C)c1 (stereo not drawn) [compound 490, 1-(6-chloropyridazin-3-yl)-N-(3-(1,1-difluoropropyl)phenyl)-3-methyl-5-oxo-4,5-dihydro-1H-pyrazole-4-carboxamide]	6 to 100
CCC(F)(F)c1cccc(NC(=O)C2C(=O)N(c3ccc4ccoc4c3)N=C2C)c1 (stereo not drawn) [compound 491, 1-(benzofuran-6-yl)-N-(3-(1,1-difluoropropyl)phenyl)-3-methyl-5-oxo-4,5-dihydro-1H-pyrazole-4-carboxamide]	0.01 to 6
CCC(F)(F)c1cccc(NC(=O)C2C(=O)N(c3cccc4occc34)N=C2C)c1 (stereo not drawn) [compound 492, 1-(benzofuran-4-yl)-N-(3-(1,1-difluoropropyl)phenyl)-3-methyl-5-oxo-4,5-dihydro-1H-pyrazole-4-carboxamide]	0.01 to 6
CCC(F)(F)c1cccc(NC(=O)C2C(=O)N(c3ccc4ccn(C(=O)c5cccc(O)c5)c4c3)N=C2C)c1 (stereo not drawn) [compound 493, N-(3-(1,1-difluoropropyl)phenyl)-1-(1-(3-hydroxybenzoyl)-1H-indol-6-yl)-3-methyl-5-oxo-4,5-dihydro-1H-pyrazole-4-carboxamide]	0.01 to 6
C/C=C(\F)c1cccc(NC(=O)C2C(=O)N(c3ccc(OC(F)F)cc3)N=C2C)c1 (stereo not drawn) [compound 494, (Z)-1-(4-(difluoromethoxy)phenyl)-N-(3-(1-fluoroprop-1-en-1-yl)phenyl)-3-methyl-5-oxo-4,5-dihydro-1H-pyrazole-4-carboxamide]	0.01 to 6
C/C=C(/F)c1cccc(NC(=O)C2C(=O)N(c3ccc(OC(F)F)cc3)N=C2C)c1 (stereo not drawn) [compound 495, (E)-1-(4-(difluoromethoxy)phenyl)-N-(3-(1-fluoroprop-1-en-1-yl)phenyl)-3-methyl-5-oxo-4,5-dihydro-1H-pyrazole-4-carboxamide]	0.01 to 6
CC1=NN(c2ccc(OC(F)F)cc2)C(=O)C1C(=O)Nc1cccc(C(F)=C(C)C)c1 (stereo not drawn) [compound 496, 1-[4-(difluoromethoxy)phenyl]-N-[3-(1-fluoro-2-methyl-prop-1-enyl)phenyl]-3-methyl-5-oxo-4H-pyrazole-4-carboxamide]	6 to 100
CCC(F)(F)c1cccc(NC(=O)C2C(=O)N(c3ccc4c(C)cn(C)c4c3)N=C2C)c1 (stereo not drawn) [compound 497, N-(3-(1,1-difluoropropyl)phenyl)-1-(1,3-dimethyl-1H-indol-6-yl)-3-methyl-5-oxo-4,5-dihydro-1H-pyrazole-4-carboxamide]	0.01 to 6
CCC(F)(F)c1cccc(NC(=O)C2C(=O)N(c3ccc(OC)c(-c4ccccc4)n3)N=C2C)c1 (stereo not drawn) [compound 498, N-(3-(1,1-difluoropropyl)phenyl)-1-(5-methoxy-6-phenylpyridin-2-yl)-3-methyl-5-oxo-4,5-dihydro-1H-pyrazole-4-carboxamide]	0.01 to 6
CCC(F)(F)c1cccc(NC(=O)C2C(=O)N(c3ccc4cn[nH]c4c3)N=C2C)c1 (stereo not drawn) [compound 499, N-[3-(1,1-difluoropropyl)phenyl]-1-(1H-indazol-6-yl)-3-methyl-5-oxo-4H-pyrazole-4-carboxamide]	0.01 to 6
CCC(F)(F)c1cccc(NC(=O)C2C(=O)N(c3ccc4nc[nH]c4c3)N=C2C)c1 (stereo not drawn) [compound 500, 1-(1H-benzo[d]imidazol-6-yl)-N-(3-(1,1-difluoropropyl)phenyl)-3-methyl-5-oxo-4,5-dihydro-1H-pyrazole-4-carboxamide]	0.01 to 6
CCC(F)(F)c1cccc(NC(=O)C2C(=O)N(c3ccc(C#N)cc3)N=C2C)c1 (stereo not drawn) [compound 501, 1-(4-cyanophenyl)-N-(3-(1,1-difluoropropyl)phenyl)-3-methyl-5-oxo-4,5-dihydro-1H-pyrazole-4-carboxamide]	0.01 to 6
CCC(F)(F)c1cccc(NC(=O)C2C(=O)N(c3ccc4cc(C)n(C)c4c3)N=C2C)c1 (stereo not drawn) [compound 502, N-[3-(1,1-difluoropropyl)phenyl]-1-(1,2-dimethylindol-6-yl)-3-methyl-5-oxo-4H-pyrazole-4-carboxamide]	0.01 to 6
CC1=NN(c2ccc(OC(F)F)cc2)C(=O)C1C(=O)Nc1cncc(C#N)c1 (stereo not drawn) [compound 503, N-(5-cyanopyridin-3-yl)-1-(4-(difluoromethoxy)phenyl)-3-methyl-5-oxo-4,5-dihydro-1H-pyrazole-4-carboxamide]	100 to 1000
CC1=NN(c2ccc(OC(F)F)cc2)C(=O)C1C(=O)Nc1ccnc(C#N)c1 (stereo not drawn) [compound 504, N-(2-cyanopyridin-4-yl)-1-(4-(difluoromethoxy)phenyl)-3-methyl-5-oxo-4,5-dihydro-1H-pyrazole-4-carboxamide]	100 to 1000

SMILES	IC50 [nM]
CCC(F)(F)c1cccc(NC(=O)C2C(=O)N(c3ccc(OC)cc3F)N=C2C)c1 (stereo not drawn) [compound 505, N-(3-(1,1-difluoropropyl)phenyl)-1-(2-fluoro-4-methoxyphenyl)-3-methyl-5-oxo-4,5-dihydro-1H-pyrazole-4-carboxamide]	0.01 to 6
CCC(F)(F)c1cc(NC(=O)C2C(=O)N(c3ccc(OC(F)F)cc3)N=C2C)ccn1 (stereo not drawn) [compound 506, 1-(4-(difluoromethoxy)phenyl)-N-(2-(1,1-difluoropropyl)pyridin-4-yl)-3-methyl-5-oxo-4,5-dihydro-1H-pyrazole-4-carboxamide]	6 to 100
CCC(F)(F)c1cccc(NC(=O)C2C(=O)N(c3cc4[nH]ccc4cn3)N=C2C)c1 (stereo not drawn) [compound 507, N-(3-(1,1-difluoropropyl)phenyl)-3-methyl-5-oxo-1-(1H-pyrrolo[3,2-c]pyridin-6-yl)-4,5-dihydro-1H-pyrazole-4-carboxamide]	0.01 to 6
CCC(F)(F)c1cccc(NC(=O)C2C(=O)N(c3ccc(S(C)(=O)=O)cc3)N=C2C)c1 (stereo not drawn) [compound 508, N-(3-(1,1-difluoropropyl)phenyl)-3-methyl-1-(4-(methylsulfonyl)phenyl)-5-oxo-4,5-dihydro-1H-pyrazole-4-carboxamide]	0.01 to 6
CCC(F)(F)c1cccc(NC(=O)C2C(=O)N(c3ccc4ccn(C(=O)c5ccccc5O)c4c3)N=C2C)c1 (stereo not drawn) [compound 509, N-(3-(1,1-difluoropropyl)phenyl)-1-(1-(2-hydroxybenzoyl)-1H-indol-6-yl)-3-methyl-5-oxo-4,5-dihydro-1H-pyrazole-4-carboxamid]	0.01 to 6
CCC(F)(F)c1cccc(NC(=O)C2C(=O)N(c3ccc(OC)nn3)N=C2C)c1 (stereo not drawn) [compound 510, N-(3-(1,1-difluoropropyl)phenyl)-1-(6-methoxypyridazin-3-yl)-3-methyl-5-oxo-4,5-dihydro-1H-pyrazole-4-carboxamide]	0.01 to 6
CCC(F)(F)c1cncc(NC(=O)C2C(=O)N(c3ccc(OC(F)F)cc3)N=C2C)c1 (stereo not drawn) [compound 511, 1-(4-(difluoromethoxy)phenyl)-N-(5-(1,1-difluoropropyl)pyridin-3-yl)-3-methyl-5-oxo-4,5-dihydro-1H-pyrazole-4-carboxamide]	0.01 to 6
CCC(F)(F)c1cccc(NC(=O)C2C(=O)N(c3cnc(OC)cn3)N=C2C)c1 (stereo not drawn) [compound 512, N-(3-(1,1-difluoropropyl)phenyl)-1-(5-methoxypyrazin-2-yl)-3-methyl-5-oxo-4,5-dihydro-1H-pyrazole-4-carboxamide]	100 to 1000
CCC(F)(F)c1cccc(NC(=O)C2C(=O)N(c3ccc(OC)cc3C(C)=O)N=C2C)c1 (stereo not drawn) [compound 516, 1-(2-acetyl-4-methoxyphenyl)-N-(3-(1,1-difluoropropyl)phenyl)-3-methyl-5-oxo-4,5-dihydro-1H-pyrazole-4-carboxamide]	6 to 100
CCC(F)(F)c1cccc(NC(=O)C2C(=O)N(c3ccc4ccnnc4c3)N=C2C)c1 (stereo not drawn) [compound 524, 1-(cinnolin-7-yl)-N-(3-(1,1-difluoropropyl)phenyl)-3-methyl-5-oxo-4,5-dihydro-1H-pyrazole-4-carboxamide]	6 to 100
CCC(F)(F)c1cccc(NC(=O)C2C(=O)N(c3ccc(OC)cc3)N=C2C(C)=O)c1 (stereo not drawn) [compound 529, 3-acetyl-N-(3-(1,1-difluoropropyl)phenyl)-1-(4-methoxyphenyl)-5-oxo-4,5-dihydro-1H-pyrazole-4-carboxamide]	100 to 1000
CCC(F)(F)c1cccc(NC(=O)C2C(=O)N(c3ccc(OC)c(-c4ccnc(C)c4)c3)N=C2C)c1 (stereo not drawn) [compound 530, N-(3-(1,1-difluoropropyl)phenyl)-1-(4-methoxy-3-(2-methylpyridin-4-yl)phenyl)-3-methyl-5-oxo-4,5-dihydro-1H-pyrazole-4-carboxamide]	0.01 to 6
CCC(F)(F)c1cccc(NC(=O)C2C(=O)N(c3ccc(OC)c(-c4cc(C)nc(C)c4)c3)N=C2C)c1 (stereo not drawn) [compound 531, N-(3-(1,1-difluoropropyl)phenyl)-1-(3-(2,6-dimethylpyridin-4-yl)-4-methoxyphenyl)-3-methyl-5-oxo-4,5-dihydro-1H-pyrazole-4-carboxamide]	0.01 to 6
CCC(F)(F)c1cccc(NC(=O)C2C(=O)N(c3ccc(OC)c(-c4ccncc4C)c3)N=C2C)c1 (stereo not drawn) [compound 532, N-(3-(1,1-difluoropropyl)phenyl)-1-(4-methoxy-3-(3-methylpyridin-4-yl)phenyl)-3-methyl-5-oxo-4,5-dihydro-1H-pyrazole-4-carboxamide]	0.01 to 6
CCC(F)(F)c1cccc(NC(=O)C2C(=O)N(c3ccc(OC)c(-c4ccc(C)cn4)c3)N=C2C)c1 (stereo not drawn) [compound 534, N-(3-(1,1-difluoropropyl)phenyl)-1-(4-methoxy-3-(5-methylpyridin-2-yl)phenyl)-3-methyl-5-oxo-4,5-dihydro-1 H-pyrazole-4-carboxamide]	0.01 to 6
CCC(F)(F)c1cccc(NC(=O)C2C(=O)N(c3ccc(OC)c(-c4ncccc4C)c3)N=C2C)c1 (stereo not drawn) [compound 535, N-(3-(1,1-difluoropropyl)phenyl)-1-(4-methoxy-3-(3-methylpyridin-2-yl)phenyl)-3-methyl-5-oxo-4,5-dihydro-1H-pyrazole-4-carboxamide]	0.01 to 6

Reference: patent publication US20250186433A1, “ACSS2 INHIBITORS AND METHODS OF USE THEREOF” (EpiVario, Inc., priority 2017, published 2025)
